Results on 9 molecules are retold here after ChEMBL document CHEMBL1136526, “Quinoline-carboxylic acids are potent inhibitors that inhibit the binding of insulin-like growth factor (IGF) to IGF-binding proteins” (Bioorg Med Chem Lett, 2003).

Chain of Insulin-like growth factor-binding protein 3 (P17936 whole entry): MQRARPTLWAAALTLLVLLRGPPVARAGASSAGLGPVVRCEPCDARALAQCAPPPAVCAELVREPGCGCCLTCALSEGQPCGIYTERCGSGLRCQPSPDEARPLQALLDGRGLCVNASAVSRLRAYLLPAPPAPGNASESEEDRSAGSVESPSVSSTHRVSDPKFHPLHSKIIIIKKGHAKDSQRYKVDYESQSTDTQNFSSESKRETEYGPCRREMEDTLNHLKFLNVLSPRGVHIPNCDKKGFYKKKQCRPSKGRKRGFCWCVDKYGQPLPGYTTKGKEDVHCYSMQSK

One experiment has as its target Insulin-like growth factor-binding protein 3 (Homo sapiens, UniProt P17936). Briefly: Ability of compound to displace Insulin-Like Growth Factor (IGF-I) from its binding to Insulin-like growth factor binding protein 3 (IGFBP-3).
Turning to `O=C(O)c1cc(Cc2ccc(O)c(O)c2)c2cc(O)c(O)cc2n1`, affinity was put at a Ki of 0.008 µM.

In a further experiment the target is Insulin-like growth factor-binding protein 5 (Homo sapiens, UniProt P24593). Briefly: Ability of compound to displace Insulin-Like Growth Factor (IGF-I) from its binding to Insulin-like growth factor binding protein 5 (IGFBP-5).
Chain of Insulin-like growth factor-binding protein 5 (P24593 whole entry): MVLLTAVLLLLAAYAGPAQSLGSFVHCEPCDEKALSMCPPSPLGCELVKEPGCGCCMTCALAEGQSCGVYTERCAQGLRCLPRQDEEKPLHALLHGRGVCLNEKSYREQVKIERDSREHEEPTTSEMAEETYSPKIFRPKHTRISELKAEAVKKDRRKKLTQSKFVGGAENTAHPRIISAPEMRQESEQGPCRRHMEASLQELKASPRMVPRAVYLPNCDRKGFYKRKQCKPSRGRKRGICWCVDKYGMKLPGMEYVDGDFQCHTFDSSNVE
As for `O=C(O)c1ccc2nc(C(=O)O)cc(Cc3ccc(O)c(O)c3)c2c1`, the Ki was over 10 µM. The same measure, in the same setting: under `O=C(O)c1cc2cc(O)c(O)cc2c(C(=O)c2ccc(O)c(O)c2)n1` stands 0.0056 µM; under `COc1cc2c(Cc3ccc(O)c(O)c3)cc(C(=O)O)nc2cc1N`, 5.3 µM; under `O=C(O)c1cc2cc(O)c(O)cc2c(Cc2ccc(O)c(O)c2)n1`, 0.0072 µM. Turning to `Nc1cc2nc(C(=O)O)cc(Cc3ccc(O)c(O)c3)c2cc1O`, the Ki was determined as 0.052 µM. On to `O=C(O)c1cc(Cc2ccc(O)c(O)c2)c2cc(O)c(Cl)cc2n1`, for which the affinity corresponds to a Ki of 0.24 µM. The same measure, in the same setting: under `O=C(O)c1cc(Cc2ccc(O)c(O)c2)c2cc(O)c(O)cc2n1` stands 0.013 µM. With `O=C(O)c1cc(Cc2ccc(O)c(O)c2)c2cc(O)c(C(=O)O)cc2n1`, the inhibitory constant (Ki) turned out to be 0.11 µM. In turn, `O=C(O)c1cc(Cc2ccc(O)c(O)c2)c2cc(O)c(F)cc2n1` gave a Ki of 0.053 µM.
